# From patent US10669290B2, “Beta-lactamase inhibitors” (priority 2012, dated 2020)
# Where two headings read alike, the source gives them in different places.
# Assays:
# Assay type in all cases: cell-based
# E. coli ESBL4 CTX-M-15 = assay: Broth microdilution MIC, E. coli ESBL4; conditions: Escherichia coli
# Source text: (§1) To determine the ability of test compounds to potentiate the inhibition of the growth of bacterial strains that produce beta-lactamase enzymes, classic cell based broth microdilution MIC assays were employed. Six bacteria strains producing beta-lactamase enzymes were used: E. coli expressing the Class A Extended Spectrum Beta-Lactamase (ESBL) CTX-M-15, E. cloacae expressing the Class C P99, K. pneumoniae expressing the Class A carbapenemase KPC-2, P. aeruginosa expressing the Class B carbapenemase VIM-2, K. pneumoniae expressing the class A carbapenemase KPC-2 and the class B carbapenemase VIM-4, and S. aureus producing the Class A penicillinase PC-1. The assay was conducted in Cation Adjusted Mueller Hinton Broth (CAMHB, BD #212322, BD Diagnostic Systems, Sparks, Md.). Bacteria strains were grown for 3-5 hours in CAMBH broth. Test compounds were added to a microtiter plate in 2-fold serial dilutions in CAMHB in a final concentration range of 32 μg/mL to 0.25 μg/ml. An overlay of CAMHB containing a Beta-lactam was added to the compounds at a final static concentration of 4 μg/ml. […] In addition to the titration of test compounds the MICs of a panel of control beta-lactams is also tested to ensure the strains are behaving consistently from test to test. Once the test compound and antibiotics are added the plates can be inoculated according to CLSI broth microdilution method. After inoculation the plates are incubated for 16-20 hours at 37° C. then the Minimal Inhibitory Concentration (MIC) of the test compound is determined visually.
# (§2) Using the methodology described above in EXAMPLE III, exemplary compounds for Formula I or Formula Ia were evaluated for their ability to inhibit the growth of β-lactamase producing bacteria in the presence of a β-lactam antibiotic.
# E. cl 144200 p99 AmpC = assay: Broth microdilution MIC, E. cloacae 144200; conditions: Enterobacter cloacae
# Source text: as §1, §2
# K.P. 156319 KPC-3 = assay: Broth microdilution MIC, K. pneumoniae 156319; conditions: Klebsiella pneumoniae; fixed meropenem 4 μg/mL, CAMHB, 16-20 hours 37° C.; read-out: MIC of exemplary compounds in presence of fixed β-lactams, Fixed Mero, K.P. 156319 KPC-3
# P. aerug. Ps296 VIM-2 = assay: Broth microdilution MIC, P. aeruginosa Ps296; conditions: Pseudomonas aeruginosa; fixed meropenem 4 μg/mL, CAMHB, 16-20 hours 37° C.; read-out: MIC of exemplary compounds in presence of fixed β-lactams, Fixed Mero, P. aerug. Ps296 VIM-2
# Source text: as §1, §2
# K.P. A-1797 KPC-2 VIM-4 = assay: Broth microdilution MIC, K. pneumoniae A-1797; conditions: Klebsiella pneumoniae; fixed meropenem 4 μg/mL, CAMHB, 16-20 hours 37° C.; read-out: MIC of exemplary compounds in presence of fixed β-lactams, Fixed Mero, K.P. A-1797 KPC-2 VIM-4
# Source text: as §1, §2
# S. aureus MSSA-7 PC-1 = assay: Broth microdilution MIC, S. aureus MSSA-7; conditions: Staphylococcus aureus, fixed piperacillin 4 μg/mL, CAMHB, 16-20 hours 37° C., read-out: MIC of exemplary compounds in presence of fixed β-lactams, Fixed Pip, S. aureus MSSA-7 PC-1
# Source text: as §1, §2
# [1] = ESBL4CTXM15, fixed ceftazidime 4 μg/mL, CAMHB, 16-20 hours 37° C., read-out: MIC of exemplary compounds in presence of fixed β-lactams, Fixed CAZ, E. coli ESBL4 CTX-M-15
# [2] = fixed ceftazidime 4 μg/mL, CAMHB, 16-20 hours 37° C., read-out: MIC of exemplary compounds in presence of fixed β-lactams, Fixed CAZ, E. cl 144200 p99 AmpC
MIC (E. coli ESBL4 CTX-M-15; [1]),MIC (E. cl 144200 p99 AmpC; [2]),MIC (K.P. 156319 KPC-3),MIC (P. aerug. Ps296 VIM-2),MIC (K.P. A-1797 KPC-2 VIM-4),MIC (S. aureus MSSA-7 PC-1),SMILES,"MIC (E. coli ESBL4 CTX-M-15; ESBL4CTXM15, read-out: MIC alone)",MIC (E. cl 144200 p99 AmpC; read-out: MIC alone)
< 4 µg/mL,< 4 µg/mL,< 4 µg/mL,< 4 µg/mL,< 4 µg/mL,8 to 32 µg/mL,"NC[C@H]1CC[C@H](C(=O)N[C@H]2Cc3cccc(C(=O)O)c3OB2O)CC1 [Example 1, (R)-3-(trans-4-(aminomethyl)cyclohexanecarboxamido)-2-hydroxy-3,4-dihydro-2H-benzo[e][1,2]oxaborinine-8-carboxylic acid]",–,–
< 4 µg/mL,< 4 µg/mL,< 4 µg/mL,< 4 µg/mL,< 4 µg/mL,8 to 32 µg/mL,"N[C@H]1CC[C@H](C(=O)N[C@H]2Cc3cccc(C(=O)O)c3OB2O)CC1 [Example 2, (R)-3-(trans-4-aminocyclohexanecarboxamido)-2-hydroxy-3,4-dihydro-2H-benzol[e][1,2]oxaborinine-8-carboxylic acid]",–,–
< 4 µg/mL,< 4 µg/mL,< 4 µg/mL,< 4 µg/mL,8 to 32 µg/mL,< 4 µg/mL,NC[C@H]1CC[C@H](CC(=O)N[C@H]2Cc3cccc(C(=O)O)c3OB2O)CC1 [Example 3],–,–
< 4 µg/mL,< 4 µg/mL,< 4 µg/mL,< 4 µg/mL,< 4 µg/mL,< 4 µg/mL,"N[C@H]1CC[C@H](CC(=O)N[C@H]2Cc3cccc(C(=O)O)c3OB2O)CC1 [Example 6, (R)-3-(2-(trans-4-aminocyclohexyl)acetamido)-2-hydroxy-3,4-dihydro-2H-benzol[e][1,2]oxaborinine-8-carboxylic acid]",–,–
< 4 µg/mL,< 4 µg/mL,< 4 µg/mL,> 32 µg/mL,> 32 µg/mL,8 to 32 µg/mL,"N[C@H]1CC[C@@H](CC(=O)N[C@H]2Cc3cccc(C(=O)O)c3OB2O)CC1 [Example 7, (R)-3-(2-(cis-4-aminocyclohexyl)acetamido)-2-hydroxy-3,4-dihydro-2H-benzo[e][1,2]oxaborinine-8-carboxylic acid]",–,–

# The next lines start with the compound.
SMILES,MIC (E. coli ESBL4 CTX-M-15; [1]),MIC (E. cl 144200 p99 AmpC; [2]),MIC (K.P. 156319 KPC-3),MIC (P. aerug. Ps296 VIM-2),MIC (K.P. A-1797 KPC-2 VIM-4),MIC (S. aureus MSSA-7 PC-1),"MIC (E. coli ESBL4 CTX-M-15; ESBL4CTXM15, read-out: MIC alone)",MIC (E. cl 144200 p99 AmpC; read-out: MIC alone)
"CC(C)(O/N=C(\C(=O)N[C@@H]1C(=O)N2C(C(=O)[O-])=C(C[n+]3ccccc3)CS[C@H]12)c1csc(N)n1)C(=O)O [Ceftazidime, reference compound]",–,–,–,–,–,–,> 128 µg/mL,128 µg/mL
"N=C(N)NC[C@H]1CC[C@H](CC(=O)N[C@H]2Cc3cccc(C(=O)O)c3OB2O)CC1 [Example 4, (R)-3-(2-(trans-4-(guanidinomethyl)cyclohexyl)acetamido)-2-hydroxy-3,4-dihydro-2H-benzo[e][1,2]oxaborinine-8-carboxylic acid]",< 4 µg/mL,< 4 µg/mL,< 4 µg/mL,< 4 µg/mL,8 to 32 µg/mL,< 4 µg/mL,–,–
"CN(C)CC(=O)NC[C@H]1CC[C@H](CC(=O)N[C@H]2Cc3cccc(C(=O)O)c3OB2O)CC1 [Example 5, (R)-3-(2-(trans-4-((2-(dimethylamino)acetamido)methyl)cyclohexyl)acetamido)-2-hydroxy-3,4-dihydro-2H-benzo[e][1,2]oxaborinine-8-carboxylic acid]",< 4 µg/mL,< 4 µg/mL,8 to 32 µg/mL,< 4 µg/mL,> 32 µg/mL,< 4 µg/mL,–,–
"NCC1CCC(=CC(=O)N[C@H]2Cc3cccc(C(=O)O)c3OB2O)CC1 (stereo partly drawn) [Example 11, (3R)-3-(2-(4-(aminomethyl)cyclohexylidene)acetamido)-2-hydroxy-3,4-dihydro-2H-benzo[e][1,2]oxaborinine-8-carboxylic acid]",< 4 µg/mL,< 4 µg/mL,< 4 µg/mL,8 to 32 µg/mL,8 to 32 µg/mL,–,–,–
"NCC1CCC(CC(=O)N[C@H]2Cc3cccc(C(=O)O)c3OB2O)(C[N+](=O)[O-])CC1 (stereo partly drawn) [Example 12, (R)-3-(2-(4-(aminomethyl)-1-(nitromethyl)cyclohexyl)acetamido)-2-hydroxy-3,4-dihydro-2H-benzo[e][1,2]oxaborinine-8-carboxylic acid]",< 4 µg/mL,< 4 µg/mL,8 to 32 µg/mL,8 to 32 µg/mL,> 32 µg/mL,–,–,–
